# Key:
# NCI-H125 = assay: Anticancer activity against human nonsmall cell lung carcinoma (H125 cells); format: functional
# MCF7 = assay: Anticancer activity against human breast carcinoma MCF-7 cells; format: functional
# L1210 = assay: Anticancer activity against murine leukemia L1210 cells; format: functional, Mus musculus
# WiDr = assay: Anticancer activity against human colon carcinoma WiDr cells; format: functional
# A121 = assay: Anticancer activity against human ovarian carcinoma A121 cells; format: functional
smiles,measurement,setting,value
COc1cc2c(c3c1C(=O)c1c(NCCNCCO)ccc(NCCNCCO)c1C3=O)CCCC2,Activity,NCI-H125,220 nM
same,Activity,MCF7,1000 nM
same,Activity,L1210,2 µM
same,Activity,WiDr,960 nM
same,Activity,A121,100 nM
